Source: patent publication US10968232B2 (Merck Sharp & Dohme Corp., priority 2016, dated 2021)

molecular target: T1, human GPR40 (Homo sapiens, UniProt O14842); experiment: Inositol Phosphate Turnover (IP1) Assay; assay type: cell-based; settings: HEK cells stably expressing human GPR40; CisBio IP-One kit; 60 minutes at 37 degrees; read-out: Human IP1 EC50
T1 construct: expressed in transfected cells
Summary of the method: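 HEK cells stably expressing GPR40, plated 16 h, then exposed to compound in stimulation buffer for 60 min at 37 °C. IP1 accumulation read by HTRF IP-One detection after 60 min at RT.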

T1 sequence (O14842 whole entry): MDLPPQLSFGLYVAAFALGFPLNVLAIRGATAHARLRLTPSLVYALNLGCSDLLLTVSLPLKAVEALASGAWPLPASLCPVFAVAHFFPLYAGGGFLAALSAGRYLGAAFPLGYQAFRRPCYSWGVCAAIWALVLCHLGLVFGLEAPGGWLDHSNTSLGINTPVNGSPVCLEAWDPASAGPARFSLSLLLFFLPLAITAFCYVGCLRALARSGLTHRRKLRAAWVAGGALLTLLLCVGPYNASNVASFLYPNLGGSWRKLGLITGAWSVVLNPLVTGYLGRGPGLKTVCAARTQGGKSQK

Row | Compound | EC50
1 | CC(c1cc(Cl)ccc1C(F)(F)F)N1CCC2(CCc3ccc([C@H](C4CC4)[C@H](C)C(=O)O)cc3O2)CC1 (mixture of isomers) [Example 5, (2S3R)-3-(1′-((RS)-1-(5-chloro-2-(trifluoromethyl)phenyl)ethyl)spiro[chroman-2,4′-piperidin]-7-yl)-3-cyclopropyl-2-methylpropanoic Acid] | 2.71 nM
2 | Cc1nocc1-c1ccc(OC(F)(F)F)c(C(C)N2CCC3(CCc4ccc([C@H](C5CC5)[C@H](C)C(=O)O)cc4O3)CC2)c1 (single isomer, unassigned) [Example 115, (2S,3R)-3-cyclopropyl-2-methyl-3-(1′-((R or S)-1-(5-(3-methylisoxazol-4-yl)-2-(trifluoromethoxy)phenyl)eth-yl)spiro[chroman-2,4′-piperidin]-7-yl)propanoic acid] | 41.7 nM
3 | C[C@H](C(=O)O)[C@H](c1ccc2c(c1)OC1(CC2)[C@@H]2CC[C@H]1CN([C@@H](C)c1cc(C(F)(F)F)ccc1C(F)(F)F)C2)C1CC1 (stereo partly drawn) [Example 86, (2S,3R)-3-((1R,5S)-3-((S)-1-(2,5-bis(trifluoro-methyl)phenyl)ethyl)-3-azaspiro[bicyclo[3.2.1]oc-tane-8,2′-chroman]-7′-yl)-3-cyclopropyl-2-methylpropanic acid] | 46.5 nM
4 | C[C@H](C(=O)O)[C@H](c1ccc2c(c1)OC1(CC2)CC(N(C)c2ncccc2C(F)(F)F)C1)C1CC1 (stereo partly drawn) [Example 90, (2S,3R)-3-cyclo-propyl-2-methyl-3-(3′-(methyl(3-(trifluoro-methyl)pyridin-2-yl)amino)spiro[chro-man-2,1′-cyclobutan]-7-yl)propanoic acid] | 7.24 nM
5 | CC(c1cc(Cl)ccc1F)N1CCC2(CCc3ccc([C@H](C4CC4)[C@H](C)C(=O)O)cc3O2)CC1 (single isomer, unassigned) [Example 78, (2S,3R)-3-(1′-((R or S)-1-(5-chloro-2-fluorophenyl)ethyl)spiro[chroman-2,4′-piperidin]-7-yl)-3-cyclopropyl-2-methylpropanoic Acid] | 14.3 nM
6 | C[C@H](C(=O)O)[C@H](c1ccc2c(c1)OC1(CCCN([C@H](C)c3cc(C(F)(F)F)ccc3C(F)(F)F)CC1)CC2)C1CC1 (single isomer, unassigned) [Example 50, (2S,3R)-3-((S or R)-1-((R)-1-(2,5-bis (trifluoromethyl)phenyl)ethyl)spiro[azepane-4,2′-chroman]-7′-yl)-3-cyclopropyl-2-methylpropanoic acid] | 1.39 nM
7 | C[C@H](C(=O)O)[C@H](c1ccc2c(c1)OC1(CC2)CCN(c2cccnc2C(F)(F)F)CC1)C1CC1 [Example 22, sodium (2S,3R)-3-cyclopropyl-2-methyl-3-(1′-(2-(trifluoromethyl)pyridin-3-yl)spiro[chroman-2,4′-piperidin]-7-yl)propanoate] | 38.3 nM
8 | C[C@H](C(=O)O)[C@H](c1ccc2c(c1)OC1(CC2)CCN(Cc2cc(C#N)ccc2OC(F)(F)F)CC1)C1CC1 [Example 124, (2S,3R)-3-(1′-(5-cyano-2-(trifluoro-methoxy)-benzyl)spiro[chroman-2,4′-piperidin]-7-yl)-3-cyclopropyl-2-methylpropanoic acid] | 64.1 nM
9 | CC(c1nc(C(F)(F)F)ccc1Cl)N1CCC2(CCc3ccc([C@H](C4CC4)[C@H](C)C(=O)O)cc3O2)CC1 (single isomer, unassigned) [Example 31] | 49.9 nM

More lines, in order of falling EC50, values ahead:

Row | EC50 | Compound
10 | 995 nM | COc1ncc(C(F)(F)F)cc1C(C)N1CCC2(CCc3ccc([C@H](C4CC4)[C@H](C)C(=O)O)cc3O2)CC1 (single isomer, unassigned) [Example 102, (2S,3R)-3-cyclopropyl-3-(1′-((R or S)-1-(2-methoxy-5-(trifluoromethyl)pyridin-3-yl)ethyl)spiro-[chroman-2,4′-piperidin]-7-yl)-2-methylpropanoic Acid]
11 | 177 nM | C[C@H](C(=O)O)[C@H](c1ccc2c(c1)OC1(CC2)CCN(Cc2nc(C(F)(F)F)ccc2Cl)CC1)C1CC1 [Example 32, (2S,3R)-3-(1′-((3-chloro-6-(trifluoromethyl)-pyridin-2-yl)methyl)-spiro-[chroman-2,4′-piperidin]-7-yl)-3-cyclopropyl-2-methylpropanoic acid]
12 | 115 nM | CC(c1cc(OC(F)(F)F)ccc1F)N1CCC2(CCc3ccc([C@H](C4CC4)[C@H](C)C(=O)O)cc3O2)CC1 (mixture of isomers) [Example 29, (2S,3R)-3-cyclopropyl-3-(1′-((RS)-1-(2-fluoro-5-(trifluoromethoxy)phenyl)ethyl)spiro[chroman-2,4′-piperidin]-7-yl)-2-methylpropanoic acid]
13 | 50 nM | CC(c1cc(Cl)ccc1OC(F)F)N1CCC2(CCc3ccc([C@H](C4CC4)[C@H](C)C(=O)O)c(F)c3O2)CC1 (single isomer, unassigned) [Example 33, (2S,3R)-3-(1′-((R or S)-1-(5-chloro-2-(difluoromethoxy)phenyl)ethyl)-8-fluorospiro-[chroman-2,4′-piperidin]-7-yl)-3-cyclopropyl-2-methylpropanoic Acid]
14 | 28 nM | C[C@H](C(=O)O)[C@H](c1ccc2c(c1)OC1(CC2)CCC(Nc2ncccc2C(F)(F)F)CC1)C1CC1 (single isomer, unassigned) [Example 65]
15 | 22.6 nM | C[C@H](C(=O)O)[C@H](c1ccc2c(c1)OC1(CC2)CCN(S(=O)(=O)c2cc(Cl)ccc2Cl)CC1)C1CC1 [Example 46, (2S,3R)-3-cyclopropyl-3-(1′-((2,5-dichloro-phenyl)sulfonyl)spiro [chroman-2,4′-piperidin]-7-yl)-2-methyl-propanoic acid]
16 | 11.7 nM | C[C@H](C(=O)O)[C@H](c1ccc2c(c1F)OC1(CC2)CCN(Cc2cc(F)ccc2OC(F)(F)F)CC1)C1CC1 [Example 3, (2S,3R)-3-cyclopropyl-3-(8-fluoro-1′-(5-fluoro-2-(trifluoromethoxy)-benzyl)spiro[chroman-2,4′-piperidin]-7-yl)-2-methylpropanoic acid]
17 | 5.9 nM | CC(c1cc(C(F)(F)F)ccc1C1CC1)N1CCC2(CCc3ccc([C@H](C4CC4)[C@H](C)C(=O)O)cc3O2)CC1 (single isomer, unassigned) [Example 15, sodium (2S,3R)-3-cyclo-propyl-3-(1′-((S or R)-1-(2-cyclopropyl-5-(trifluoromethyl)phenyl)ethyl)spiro[chroman-2,4′-piperidin]-7-yl)-2-methylpropanoate]
18 | 3.22 nM | CC(c1cc(Cl)cc(Cl)c1OC(F)F)N1CCC2(CCc3ccc([C@H](C4CC4)[C@H](C)C(=O)O)cc3O2)CC1 (single isomer, unassigned) [Example 80, (2S,3R)-3-cycloprop-3-(1′-((S or R)-1-(3,5-dichloro-2-(difluoro-methoxy)phenyl)-ethyl)spiro[chroman-2,4′-piperidin]-7-yl)-2-methylpropanoic acid]
19 | 3.1 nM | C[C@H](C(=O)O)[C@H](c1ccc2c(c1)OC1(CC2)CCN([C@H](C)c2cc(C(F)(F)F)ccc2C(F)(F)F)CC1)C1CC1 [Example 130, Sodium (2S,3R)-3-(1′-((R)-1-(2,5-Bis(trifluoromethyl)phenyl)ethyl)spiro[chromane-2,4′-piperidin]-7-yl)-3-cyclopropyl-2-methylpropanoate]
